For 45 molecules, IC50, Inhibition and Cytotoxicity results are on record in ChEMBL document CHEMBL1143515, “Structure-activity relationships of 1'S-1'-acetoxychavicol acetate for inhibitory effect on NO production in lipopolysaccharide-activated mouse peritoneal macrophages” (Bioorg Med Chem Lett, 2005).

Some results are limits rather than exact numbers.

The species entered for series [1] is Mus musculus. As to the kind of experiment: Inhibitory concentration of compound on nitric oxide (NO) production in lipopolysaccharide activated mouse peritoneal macrophages. In kind it is functional.
For series [2], the species on record is Mus musculus. Kind of series: Percent inhibition of nitric oxide (NO) production in lipopolysaccharide activated mouse peritoneal macrophages at 100 uM of compound. In kind it is functional.
The nature of series [3]: Concentration with cytotoxic effect on mouse peritoneal macrophages.

By IC50 is commonly meant the point on the concentration scale where inhibition reaches its midpoint. Usually Inhibition stands for the relative decrease from the control value, in per cent. In the case of `C=CC(OC)c1ccc(OC)cc1` (configuration not stated), in the series filed under Mus musculus [1] (read-out: IC50), the IC50 was more than 100 µM. Further, the Inhibition in the series listed under Mus musculus [2] is given as 22%.

For the molecule `C=CCC(O)c1ccc(O)cc1` (configuration not stated), the 50% inhibitory concentration (IC50) in the series filed under Mus musculus [1] (read-out: IC50) was more than 100 µM. Moreover, in the series filed under Mus musculus [2], the Inhibition is recorded as 13%.

In the case of `C=CCc1ccc(OC(C)=O)cc1`, the IC50 in the series listed under Mus musculus [1] (read-out: IC50) stood at 65 µM.

Take `C=CCc1ccc(O)c(OC)c1` [EUGENOL]: the IC50 in the series listed under Mus musculus [1] (read-out: IC50) is more than 100 µM. The Inhibition in the series filed under Mus musculus [2] came out at 15%.

With `C=CCc1ccc(OC)c(OC)c1` [METHYLEUGENOL], the IC50 in the series filed under Mus musculus [1] (read-out: IC50) was more than 100 µM. Moreover, in the series listed under Mus musculus [2], the Inhibition was found to be 1%.

As to `O=C(O)/C=C/c1ccccc1O` [O-COUMARIC ACID], the IC50 in the series listed under Mus musculus [1] (read-out: IC50) is more than 100 µM. Also, the Inhibition in the series filed under Mus musculus [2] is recorded as 7%.

As for `CC[C@H](OC(C)=O)c1ccccc1`, the IC50 in the series filed under Mus musculus [1] (read-out: IC50) is more than 100 µM. Besides, in the series listed under Mus musculus [2], the Inhibition turned out to be 25%.

As to `CCC(=O)Oc1ccc(C(CC)OC(=O)CC)cc1` (configuration not stated), the IC50 in the series filed under Mus musculus [1] (read-out: IC50) stood at 59 µM.

Regarding `C=CC(O)c1cccc(O)c1` (configuration not stated), the IC50 in the series listed under Mus musculus [1] (read-out: IC50) was more than 100 µM. Also, in the series listed under Mus musculus [2], the Inhibition is reported as 1%.

Regarding `C=CC(O)c1ccc(O)cc1` (configuration not stated), the IC50 in the series listed under Mus musculus [1] (read-out: IC50) is more than 100 µM. Also, in the series filed under Mus musculus [2], the Inhibition is -1%.

As for `C=C[C@H](OC(C)=O)c1ccc(OC(C)=O)c(OC)c1`, in the series filed under Mus musculus [1] (read-out: IC50), the IC50 came to 11 µM.

For the molecule `C=CCc1ccc(O)c(O)c1` [HYDROXYCHAVICOL], the IC50 in the series filed under Mus musculus [1] (read-out: IC50) is 15 µM.

As to `O=C(O)/C=C/c1ccc(O)c(O)c1` [CAFFEIC ACID], the half-maximal inhibitory concentration (IC50) in the series listed under Mus musculus [1] (read-out: IC50) was more than 100 µM. In the series filed under Mus musculus [2], the Inhibition worked out at 15%.

`C=C[C@@H](OC(C)=O)c1ccc(OC(C)=O)cc1`: the IC50 in the series filed under Mus musculus [1] (read-out: IC50) was 8.2 µM.

Consider `C=CC(OC(C)=O)c1ccc(OC(C)=O)cc1` (configuration not stated), for which, in the series filed under Mus musculus [1] (read-out: IC50), the IC50 is 4.9 µM.

Regarding `CC[C@H](O)c1ccccc1`, the IC50 in the series listed under Mus musculus [1] (read-out: IC50) was more than 100 µM. Moreover, the Inhibition in the series filed under Mus musculus [2] was -4%.

Take `O=C/C=C/c1ccc(O)cc1` [p-HYDROXYCINNAMALDEHYDE]: the IC50 in the series listed under Mus musculus [1] (read-out: IC50) turned out to be 20 µM.

For the molecule `COc1ccc(/C=C/C(=O)O)cc1OC` [O,O'-DIMETHYLCAFFEIC ACID], the IC50 in the series filed under Mus musculus [1] (read-out: IC50) was more than 100 µM. Also, the Inhibition in the series filed under Mus musculus [2] stood at 1%.

Turning to `CCCC(OC(C)=O)c1ccc(OC(C)=O)cc1` (configuration not stated), the IC50 in the series filed under Mus musculus [1] (read-out: IC50) amounted to 47 µM.

With `COc1cc(/C=C/C(=O)O)cc(OC)c1O` [SINAPINATE], the IC50 in the series listed under Mus musculus [1] (read-out: IC50) was more than 100 µM. For the same molecule, the Inhibition in the series listed under Mus musculus [2] worked out at 27%.

As to `CCC(O)c1ccc(O)cc1` (configuration not stated), the IC50 in the series filed under Mus musculus [1] (read-out: IC50) was more than 100 µM. For the same molecule, in the series filed under Mus musculus [2], the Inhibition is 11%.

As to `CC(=O)OC/C=C/c1ccc(OC(C)=O)cc1`, in the series filed under Mus musculus [1] (read-out: IC50), the half-maximal inhibitory concentration (IC50) stood at 19 µM.

On to `C=CC(OC(=O)CC)c1ccc(OC(=O)CC)cc1` (configuration not stated), for which the IC50 in the series filed under Mus musculus [1] (read-out: IC50) is 30 µM.

On to `C=CCC(OC(C)=O)c1ccc(OC(C)=O)cc1` (configuration not stated), for which the IC50 in the series listed under Mus musculus [1] (read-out: IC50) worked out at 9.2 µM.

Take `CCC(OC(C)=O)c1ccccc1OC(C)=O` (configuration not stated): the IC50 in the series listed under Mus musculus [1] (read-out: IC50) was found to be 99 µM.

As to `C=CCc1ccc(O[C@@H]2O[C@H](CO)[C@@H](O)[C@H](O)[C@H]2O)cc1`, the IC50 in the series listed under Mus musculus [1] (read-out: IC50) was more than 100 µM. In addition, the Inhibition in the series filed under Mus musculus [2] is 6%.

Turning to `O=C(O)/C=C/c1ccccc1` [CINNAMIC ACID], the IC50 in the series filed under Mus musculus [1] (read-out: IC50) was more than 100 µM. Moreover, the Inhibition in the series listed under Mus musculus [2] worked out at 15%.

Turning to `C=C[C@H](O)c1ccc(OC(C)=O)cc1`, the concentration for half-maximal inhibition (IC50) in the series filed under Mus musculus [1] (read-out: IC50) is more than 100 µM. In addition, the Inhibition in the series listed under Mus musculus [2] worked out at 46%.

Consider `CC(=O)OC/C=C/c1ccc(O)cc1`, for which, in the series filed under Mus musculus [1] (read-out: IC50), the IC50 was determined as 72 µM.

Molecule `CC(C)=O` [ACETONE] gave an IC50 in the series filed under Mus musculus [1] of 7.3 µg/mL.

Consider `OC/C=C/c1ccc(O)cc1`, for which the IC50 in the series listed under Mus musculus [1] (read-out: IC50) was more than 100 µM. Besides, the Inhibition in the series listed under Mus musculus [2] was determined as 24%.

As for `COc1ccc(/C=C/C(=O)O)cc1` [4-METHOXYCINNAMIC ACID], the IC50 in the series listed under Mus musculus [1] (read-out: IC50) was more than 100 µM. Also, the Inhibition in the series filed under Mus musculus [2] was 27%.

For the molecule `C=CC(OC(C)=O)c1ccccc1OC(C)=O` (configuration not stated), the concentration for half-maximal inhibition (IC50) in the series listed under Mus musculus [1] (read-out: IC50) came out at 3.2 µM.

Regarding `O=C(O)/C=C/c1cccc(O)c1`, the IC50 in the series listed under Mus musculus [1] (read-out: IC50) is more than 100 µM. In addition, the Inhibition in the series filed under Mus musculus [2] was 3%.

In the case of `O=C(/C=C/c1ccc(O)c(O)c1)OCCc1ccccc1` [CAFFEIC ACID PHENETHYL ESTER], the IC50 in the series listed under Mus musculus [1] (read-out: IC50) is 15 µM.

`CCC(OC(C)=O)c1ccc(OC(C)=O)cc1` (configuration not stated): in the series filed under Mus musculus [1] (read-out: IC50), the IC50 worked out at 10 µM.

Consider `C=C[C@H](OC(C)=O)c1ccccc1`, for which, in the series listed under Mus musculus [1] (read-out: IC50), the IC50 was more than 100 µM. In addition, the Inhibition in the series listed under Mus musculus [2] was 20%.

As to `N=C(N)NCCSSCCNC(=N)N` [GUANIDINOETHYLDISULFIDE], the IC50 in the series filed under Mus musculus [1] (read-out: IC50) turned out to be 7.4 µM.

As to `C=CC(OC(C)=O)c1cccc(OC(C)=O)c1` (configuration not stated), in the series filed under Mus musculus [1] (read-out: IC50), the IC50 was more than 100 µM. The Inhibition in the series filed under Mus musculus [2] is on record as 20%.

Take `C=CCc1ccc(O)cc1` [CHAVICOL]: in the series listed under Mus musculus [1] (read-out: IC50), the IC50 is more than 100 µM. In the series filed under Mus musculus [2], the Inhibition was 43%.

Regarding `C=CC(O)c1ccccc1O` (configuration not stated), the IC50 in the series listed under Mus musculus [1] (read-out: IC50) is more than 100 µM. For the same molecule, in the series filed under Mus musculus [2], the Inhibition is 0%.

Consider `C=C[C@H](O)c1ccccc1`, for which, in the series listed under Mus musculus [1] (read-out: IC50), the IC50 was more than 100 µM. Also, in the series filed under Mus musculus [2], the Inhibition was determined as 19%.

For the molecule `C=CC(OC(C)=O)c1cccc(O)c1` (configuration not stated), in the series filed under Mus musculus [1] (read-out: IC50), the IC50 was more than 100 µM. In the series listed under Mus musculus [2], the Inhibition stood at 25%.

`C=C[C@H](OC(C)=O)c1ccc(OC(C)=O)cc1` [1'-ACETOXYCHAVICOL ACETATE]: the IC50 in the series filed under Mus musculus [1] (read-out: IC50) was 2.3 µM.

Molecule `C=CC(O)c1ccc(OC)cc1` (configuration not stated) showed a Cytotoxicity in series [3] of 100 µM. Further, in the series listed under Mus musculus [1] (read-out: IC50), the IC50 was more than 30 µM. In addition, the Inhibition in the series filed under Mus musculus [2] is reported as -3%.
